Reference: ChEMBL document CHEMBL4828709, “Discovery of 2,4-pyrimidinediamine derivatives as potent dual inhibitors of ALK and HDAC” (Eur J Med Chem, 2021)
Active and inactive are the calls of the source. No cut-off for these calls is given here.

Key:
MDA-MB-231 [1] = assay: Inhibition of colony formation in human MDA-MB-231 cells at 0.1 to 0.4 uM incubated for 3 days followed by incubation in drug-free medium for 12 days by crystal violet staining based assay; format: functional, cell-based; conditions: dose 0.1-0.4 µM, time 3.0 day
MDA-MB-231 [2] = assay: Induction of apoptosis in human MDA-MB-231 cells assessed as early apoptotic cells at 4 uM measured after 24 hrs by Annexin V-FITC/PI staining based flowcytometry (reference value: 0.64%); format: functional
MDA-MB-231 [3] = assay: Induction of apoptosis in human MDA-MB-231 cells assessed as early apoptotic cells at 2 uM measured after 24 hrs by Annexin V-FITC/PI staining based flowcytometry (reference value: 0.64%); format: functional
SH-SY5Y [4] = assay: Cell cycle arrest in human SH-SY5Y cells assessed as accumulation of cells at G1 phase at 1 uM measured after 24 hrs by PI staining based flowcytometry method (reference value: 59.8%); format: functional
MDA-MB-231 [5] = assay: Induction of apoptosis in human MDA-MB-231 cells assessed as necrotic cells at 1 uM measured after 24 hrs by Annexin V-FITC/PI staining based flowcytometry (reference value: 0.94%); format: functional
HepG2 [6] = assay: cells; format: functional, cell-based; conditions: Homo sapiens, HepG2, 72 h
Description: Antiproliferative activity against human HepG2 cells assessed as inhibition of cell proliferation measured after 72 hrs by CCK8 assay

MDA-MB-231 [7] = assay: Cell cycle arrest in human MDA-MB-231 cells assessed as accumulation of cells at G1 phase at 2 uM measured after 24 hrs by PI staining based flowcytometry method (reference value: 55.32%); format: functional
MDA-MB-231 [8] = assay: Cell cycle arrest in human MDA-MB-231 cells assessed as accumulation of cells at G2 phase at 1 uM measured after 24 hrs by PI staining based flowcytometry method (reference value: 23.89%); format: functional
MDA-MB-231 [9] = assay: Cell cycle arrest in human MDA-MB-231 cells assessed as accumulation of cells at G1 phase at 4 uM measured after 24 hrs by PI staining based flowcytometry method (reference value: 55.32%); format: functional
SH-SY5Y [10] = assay: Induction of apoptosis in human SH-SY5Y cells assessed as late apoptotic cells at 4 uM measured after 24 hrs by Annexin V-FITC/PI staining based flowcytometry (reference value: 14.32%); format: functional
MDA-MB-231 [11] = assay: Cell cycle arrest in human MDA-MB-231 cells assessed as accumulation of cells at S phase at 2 uM measured after 24 hrs by PI staining based flowcytometry method (reference value: 20.81%); format: functional
[12] = target: T1, ALK tyrosine kinase receptor (Homo sapiens, UniProt Q9UM73); assay: Inhibition of human ALK in human SH-SY5Y cells assessed as inhibition of ERK phosphorylation at Thr202/Tyr204 residue at 4 uM measured after 24 hrs by Western blot assay; format: cell-based
[13] = target: Histone deacetylase (Homo sapiens) (UniProt Q13547+O15379+Q9UBN7+Q92769+Q9UQL6+Q8WUI4+Q9BY41+Q96DB2+P56524+Q9UKV0+Q969S8); assay: Inhibition of HDAC in human SH-SY5Y cells assessed as increase of intracellular acetylated histone H3 level at 1 to 4 uM measured after 24 hrs by Western blot assay; format: cell-based; conditions: dose 1-4 µM
[14] = Potency index, ratio of ceritinib IC50 to test compound IC50 for human SKNBE2 cells harboring wild type ALK assessed as inhibition of cell proliferation measured after 72 hrs by CCK8 assay; format: functional
SH-SY5Y [15] = assay: Induction of apoptosis in human SH-SY5Y cells assessed as early apoptotic cells at 4 uM measured after 24 hrs by Annexin V-FITC/PI staining based flowcytometry (reference value: 0.82%); format: functional
HepG2 [16] = assay: Potency index, ratio of ceritinib IC50 to test compound IC50 for human HepG2 cells assessed as inhibition of cell proliferation measured after 72 hrs by CCK8 assay; format: functional
[17] = target: T1, ALK tyrosine kinase receptor; assay: Inhibition of ALK in human MDA-MB-231 cells assessed as inhibition of AKT phosphorylation at Ser473 residue at 4 uM measured after 24 hrs by Western blot assay; format: cell-based
[18] = target: Insulin-like growth factor 1 receptor (Homo sapiens) (UniProt P08069); assay: Inhibition of human IGF1R at 1 uM
SH-SY5Y [19] = assay: Cell cycle arrest in human SH-SY5Y cells assessed as accumulation of cells at G1 phase at 2 uM measured after 24 hrs by PI staining based flowcytometry method (reference value: 59.8%); format: functional
SH-SY5Y [20] = assay: Induction of apoptosis in human SH-SY5Y cells assessed as necrotic cells at 1 uM measured after 24 hrs by Annexin V-FITC/PI staining based flowcytometry (reference value: 7.81%); format: functional
MDA-MB-231 [21] = assay: Potency index, ratio of crizotinib IC50 to test compound IC50 for human MDA-MB-231 cells assessed as inhibition of cell proliferation measured after 72 hrs by CCK8 assay; format: functional
[22] = target: T1, ALK tyrosine kinase receptor; assay: Inhibition of ALK in human MDA-MB-231 cells assessed as inhibition of ALK phosphorylation at Tyr1278 residue measured after 24 hrs by Western blot assay; format: cell-based; conditions: dose 1-4 µM
[23] = Volume of distribution at steady state in Sprague-Dawley rat at 1 mg/kg, iv measured for 12 hrs by LC-MS/MS analysis; format: ADME, organism-based; conditions: in vivo
[24] = Cmax in Sprague-Dawley rat at 1 mg/kg, iv measured for 12 hrs by LC-MS/MS analysis; format: ADME, organism-based; design: route intravenous, time 12 hrs, dose 1 mg/kg; conditions: in vivo
SH-SY5Y [25] = assay: Cell cycle arrest in human SH-SY5Y cells assessed as accumulation of cells at S phase at 4 uM measured after 24 hrs by PI staining based flowcytometry method (reference value: 27.69%); format: functional
SH-SY5Y [26] = assay: Induction of apoptosis in human SH-SY5Y cells assessed as early apoptotic cells at 1 uM measured after 24 hrs by Annexin V-FITC/PI staining based flowcytometry (reference value: 0.82%); format: functional
Homo sapiens = species: Homo sapiens; assay: Inhibition of human CDK at 1 uM
cells = format: functional, cell-based; conditions: Homo sapiens, SKNBE2, 72 h
Description: Antiproliferative activity against human SKNBE2 cells harboring wild type ALK assessed as inhibition of cell proliferation measured after 72 hrs by CCK8 assay

[27] = target: Insulin receptor (Homo sapiens) (UniProt P06213); assay: Inhibition of human InsR at 1 uM
Histone deacetylase 1 = Histone deacetylase 1 (Homo sapiens, UniProt Q13547); conditions: Sf9, dose 10.0 nM, time 15.0 min
[28] = tested on: ALK tyrosine kinase receptor (Homo sapiens), Q9UM73 [G1202R]; assay: Potency index, ratio of repotrectinib IC50 to test compound IC50 for inhibition of ALK G1202R mutant (unknown origin)
MDA-MB-231 [29] = assay: Induction of apoptosis in human MDA-MB-231 cells assessed as late apoptotic cells at 2 uM measured after 24 hrs by Annexin V-FITC/PI staining based flowcytometry ( Rvb = 5.28%); format: functional
[30] = target: T1, ALK tyrosine kinase receptor; assay: Inhibition of ALK in human MDA-MB-231 cells assessed as inhibition of Akt phosphorylation at Ser473 residue measured after 24 hrs by Western blot assay; format: cell-based; conditions: dose 1-4 µM
[31] = target: T1, ALK tyrosine kinase receptor; assay: Inhibition of ALK in human MDA-MB-231 cells assessed as inhibition of ERK phosphorylation at Thr202/Tyr204 residue measured after 24 hrs by Western blot assay; format: cell-based; conditions: dose 1-4 µM
[32] = MRT (0 to infinity) in Sprague-Dawley rat at 1 mg/kg, iv measured for 12 hrs by LC-MS/MS analysis; format: ADME, organism-based; conditions: in vivo

T1 sequence (Q9UM73 19-1620 limits assumed): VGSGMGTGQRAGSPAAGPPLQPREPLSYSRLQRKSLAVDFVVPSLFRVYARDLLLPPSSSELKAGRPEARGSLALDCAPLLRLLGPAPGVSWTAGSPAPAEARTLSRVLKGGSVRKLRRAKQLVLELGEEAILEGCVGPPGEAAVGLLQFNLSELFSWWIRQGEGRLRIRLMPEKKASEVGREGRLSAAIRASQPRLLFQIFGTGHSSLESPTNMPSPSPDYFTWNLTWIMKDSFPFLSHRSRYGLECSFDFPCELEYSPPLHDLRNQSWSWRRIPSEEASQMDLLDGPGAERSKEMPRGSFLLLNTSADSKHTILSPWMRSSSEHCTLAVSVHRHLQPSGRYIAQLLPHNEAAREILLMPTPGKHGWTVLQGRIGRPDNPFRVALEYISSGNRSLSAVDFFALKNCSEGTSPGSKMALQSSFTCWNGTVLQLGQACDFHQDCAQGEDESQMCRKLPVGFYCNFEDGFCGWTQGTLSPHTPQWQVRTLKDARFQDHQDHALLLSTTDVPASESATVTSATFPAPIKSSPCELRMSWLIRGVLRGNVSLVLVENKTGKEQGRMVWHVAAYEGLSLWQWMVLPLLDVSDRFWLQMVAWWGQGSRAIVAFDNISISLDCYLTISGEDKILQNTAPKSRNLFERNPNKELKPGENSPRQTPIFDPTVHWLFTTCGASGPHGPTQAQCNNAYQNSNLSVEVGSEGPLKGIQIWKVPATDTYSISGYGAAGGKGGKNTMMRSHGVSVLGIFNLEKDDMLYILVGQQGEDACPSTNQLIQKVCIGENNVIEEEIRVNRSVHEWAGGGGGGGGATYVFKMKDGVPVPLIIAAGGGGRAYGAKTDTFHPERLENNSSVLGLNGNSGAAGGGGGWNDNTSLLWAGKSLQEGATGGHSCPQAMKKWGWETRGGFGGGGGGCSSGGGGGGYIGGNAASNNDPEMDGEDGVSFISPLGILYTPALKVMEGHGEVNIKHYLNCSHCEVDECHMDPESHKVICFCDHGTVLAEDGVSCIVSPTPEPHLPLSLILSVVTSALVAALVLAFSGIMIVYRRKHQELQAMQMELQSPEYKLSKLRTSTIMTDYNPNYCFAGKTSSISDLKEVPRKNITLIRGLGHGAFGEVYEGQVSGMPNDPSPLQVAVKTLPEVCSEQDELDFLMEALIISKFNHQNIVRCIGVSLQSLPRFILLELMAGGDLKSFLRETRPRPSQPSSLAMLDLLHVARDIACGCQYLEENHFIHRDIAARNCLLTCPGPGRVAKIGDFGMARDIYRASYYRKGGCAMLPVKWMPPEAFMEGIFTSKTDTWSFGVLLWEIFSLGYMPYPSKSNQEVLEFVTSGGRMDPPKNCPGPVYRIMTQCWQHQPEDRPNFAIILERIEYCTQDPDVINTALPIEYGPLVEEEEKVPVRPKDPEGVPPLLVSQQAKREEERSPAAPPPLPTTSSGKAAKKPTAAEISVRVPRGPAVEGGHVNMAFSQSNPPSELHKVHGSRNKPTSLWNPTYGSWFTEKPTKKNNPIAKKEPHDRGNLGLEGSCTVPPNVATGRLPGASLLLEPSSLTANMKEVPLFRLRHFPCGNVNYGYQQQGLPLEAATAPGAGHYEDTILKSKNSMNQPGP
Sequence of ALK tyrosine kinase receptor (Homo sapiens), Q9UM73 [G1202R] (Q9UM73 whole entry G1202R): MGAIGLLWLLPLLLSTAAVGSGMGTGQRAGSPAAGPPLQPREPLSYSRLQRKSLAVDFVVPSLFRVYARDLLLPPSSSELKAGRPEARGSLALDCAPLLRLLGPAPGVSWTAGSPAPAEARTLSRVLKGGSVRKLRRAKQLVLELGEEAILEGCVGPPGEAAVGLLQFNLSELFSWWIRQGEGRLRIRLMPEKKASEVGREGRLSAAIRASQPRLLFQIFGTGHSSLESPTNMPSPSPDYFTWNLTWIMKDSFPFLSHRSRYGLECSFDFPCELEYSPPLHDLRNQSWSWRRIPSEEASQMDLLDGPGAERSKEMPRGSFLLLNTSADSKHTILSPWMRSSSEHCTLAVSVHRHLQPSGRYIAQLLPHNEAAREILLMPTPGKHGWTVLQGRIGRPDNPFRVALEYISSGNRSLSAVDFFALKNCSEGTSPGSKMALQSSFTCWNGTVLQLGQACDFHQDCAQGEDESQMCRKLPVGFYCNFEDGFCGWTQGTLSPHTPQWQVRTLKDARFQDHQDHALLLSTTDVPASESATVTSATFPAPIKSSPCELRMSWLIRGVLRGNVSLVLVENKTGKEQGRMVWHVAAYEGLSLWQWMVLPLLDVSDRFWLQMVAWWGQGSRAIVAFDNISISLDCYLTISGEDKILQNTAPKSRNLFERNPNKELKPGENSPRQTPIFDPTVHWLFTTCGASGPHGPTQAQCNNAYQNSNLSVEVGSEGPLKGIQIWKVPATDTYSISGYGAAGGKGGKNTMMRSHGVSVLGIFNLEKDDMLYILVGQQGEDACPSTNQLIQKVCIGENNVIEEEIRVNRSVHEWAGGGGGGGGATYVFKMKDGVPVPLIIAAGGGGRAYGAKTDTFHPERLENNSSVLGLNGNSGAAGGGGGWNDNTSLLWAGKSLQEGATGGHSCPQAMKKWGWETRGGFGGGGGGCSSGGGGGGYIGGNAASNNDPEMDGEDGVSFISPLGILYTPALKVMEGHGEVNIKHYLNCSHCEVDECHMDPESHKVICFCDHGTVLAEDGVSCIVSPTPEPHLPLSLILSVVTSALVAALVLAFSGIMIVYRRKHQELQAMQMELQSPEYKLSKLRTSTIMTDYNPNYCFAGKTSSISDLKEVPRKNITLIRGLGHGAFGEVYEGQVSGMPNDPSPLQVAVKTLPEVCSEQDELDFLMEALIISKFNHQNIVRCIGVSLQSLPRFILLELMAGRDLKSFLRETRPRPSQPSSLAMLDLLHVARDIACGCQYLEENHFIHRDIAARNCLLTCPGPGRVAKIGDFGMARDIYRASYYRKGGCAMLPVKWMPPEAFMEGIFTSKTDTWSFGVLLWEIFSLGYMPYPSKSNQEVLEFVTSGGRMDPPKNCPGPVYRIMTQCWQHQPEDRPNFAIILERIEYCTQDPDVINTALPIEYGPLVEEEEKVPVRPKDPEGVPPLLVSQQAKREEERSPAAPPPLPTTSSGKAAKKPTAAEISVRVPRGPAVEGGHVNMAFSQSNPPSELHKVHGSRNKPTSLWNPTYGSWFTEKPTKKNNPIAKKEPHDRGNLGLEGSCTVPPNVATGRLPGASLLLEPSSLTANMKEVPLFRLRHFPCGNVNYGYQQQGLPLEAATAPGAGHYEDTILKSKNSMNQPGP
Sequence of Insulin-like growth factor 1 receptor (Homo sapiens) (P08069 31-736 limits assumed): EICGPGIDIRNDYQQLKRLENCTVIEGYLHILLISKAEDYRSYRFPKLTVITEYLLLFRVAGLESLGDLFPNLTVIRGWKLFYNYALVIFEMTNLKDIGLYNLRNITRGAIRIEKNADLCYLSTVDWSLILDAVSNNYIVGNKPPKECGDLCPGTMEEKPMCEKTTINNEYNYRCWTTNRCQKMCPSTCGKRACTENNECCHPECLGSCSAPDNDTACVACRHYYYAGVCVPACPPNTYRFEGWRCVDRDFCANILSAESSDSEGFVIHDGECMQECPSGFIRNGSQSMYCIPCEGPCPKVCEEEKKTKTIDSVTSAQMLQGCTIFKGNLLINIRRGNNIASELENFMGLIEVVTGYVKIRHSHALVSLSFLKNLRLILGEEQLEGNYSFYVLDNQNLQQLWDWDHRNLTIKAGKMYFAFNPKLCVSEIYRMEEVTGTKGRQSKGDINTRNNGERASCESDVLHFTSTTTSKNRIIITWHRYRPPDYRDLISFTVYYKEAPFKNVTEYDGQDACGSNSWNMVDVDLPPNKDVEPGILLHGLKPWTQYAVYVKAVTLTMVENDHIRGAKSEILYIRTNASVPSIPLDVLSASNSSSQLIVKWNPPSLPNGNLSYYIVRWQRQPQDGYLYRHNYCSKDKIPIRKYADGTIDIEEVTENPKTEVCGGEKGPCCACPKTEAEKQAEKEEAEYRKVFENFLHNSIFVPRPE
Sequence of Insulin-like growth factor 1 receptor (Homo sapiens) (P08069 741-1367 limits assumed): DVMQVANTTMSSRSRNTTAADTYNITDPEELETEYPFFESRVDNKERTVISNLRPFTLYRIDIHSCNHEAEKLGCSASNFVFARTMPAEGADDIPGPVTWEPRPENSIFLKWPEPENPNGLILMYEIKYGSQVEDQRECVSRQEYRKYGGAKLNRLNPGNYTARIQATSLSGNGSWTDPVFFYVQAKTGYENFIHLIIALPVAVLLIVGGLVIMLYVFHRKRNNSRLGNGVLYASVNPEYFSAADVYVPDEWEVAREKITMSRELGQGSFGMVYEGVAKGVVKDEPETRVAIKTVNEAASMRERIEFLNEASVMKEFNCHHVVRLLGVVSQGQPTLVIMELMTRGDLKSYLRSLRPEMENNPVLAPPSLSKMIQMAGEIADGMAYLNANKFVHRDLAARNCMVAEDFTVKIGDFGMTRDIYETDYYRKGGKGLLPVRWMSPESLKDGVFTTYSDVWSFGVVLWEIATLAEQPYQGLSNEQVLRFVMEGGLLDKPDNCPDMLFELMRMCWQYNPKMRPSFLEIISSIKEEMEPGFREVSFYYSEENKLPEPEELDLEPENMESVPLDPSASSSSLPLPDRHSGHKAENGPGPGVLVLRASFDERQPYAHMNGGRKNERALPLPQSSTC
Sequence of Histone deacetylase 1 (Q13547 whole entry): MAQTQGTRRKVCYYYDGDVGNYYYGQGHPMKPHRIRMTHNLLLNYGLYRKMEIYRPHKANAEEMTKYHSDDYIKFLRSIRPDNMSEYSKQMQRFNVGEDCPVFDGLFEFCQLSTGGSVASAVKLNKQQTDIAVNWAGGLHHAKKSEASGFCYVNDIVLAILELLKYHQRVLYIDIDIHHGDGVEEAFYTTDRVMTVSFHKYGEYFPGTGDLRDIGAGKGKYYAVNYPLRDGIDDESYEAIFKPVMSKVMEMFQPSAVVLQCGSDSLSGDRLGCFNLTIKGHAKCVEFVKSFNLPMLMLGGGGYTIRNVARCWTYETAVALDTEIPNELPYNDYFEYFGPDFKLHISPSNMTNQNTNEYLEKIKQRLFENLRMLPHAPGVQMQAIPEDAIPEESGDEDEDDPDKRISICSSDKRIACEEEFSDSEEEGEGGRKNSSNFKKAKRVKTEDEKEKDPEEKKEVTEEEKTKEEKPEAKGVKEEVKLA

IC50 (HepG2 [6]): 640 nM
inhibition [12]: Active
inhibition [13]: Active
inhibition [17]: Active
inhibition [18]: Active
inhibition [22]: Dose-Dependent Effect
Vdss [23]: 3.3 L/kg
Cmax [24]: 1480 ng/mL
inhibition (Homo sapiens): 95%
IC50 (cells): 50 nM
inhibition [27]: Active
inhibition (Histone deacetylase 1): 54%
Ratio IC50 [28]: 10
inhibition [30]: Dose-Dependent Effect
inhibition [31]: Dose-Dependent Effect
MRT [32]: 7.8 min
Structure (SMILES): CC(C)S(=O)(=O)c1ccccc1Nc1nc(Nc2ccc(NC(=O)CCCCCCC(=O)NO)cc2)ncc1Cl
inhibition (MDA-MB-231 [1]): Active
Activity (MDA-MB-231 [2]): 4.42%
Activity (MDA-MB-231 [3]): 5.5%
Activity (SH-SY5Y [4]): 32.97%
Activity (MDA-MB-231 [5]): 1.36%
Activity (MDA-MB-231 [7]): 32.53%
Activity (MDA-MB-231 [8]): 32.53%
Activity (MDA-MB-231 [9]): 34.64%
Activity (SH-SY5Y [10]): 45.5%
Activity (MDA-MB-231 [11]): 21.32%
Ratio IC50 [14]: 3
Activity (SH-SY5Y [15]): 5.34%
Ratio IC50 (HepG2 [16]): 3
Activity (SH-SY5Y [19]): 3.56%
Activity (SH-SY5Y [20]): 10.08%
Ratio IC50 (MDA-MB-231 [21]): 3
Activity (SH-SY5Y [25]): 7.55%
Activity (SH-SY5Y [26]): 1.21%
Activity (MDA-MB-231 [29]): 7.72%
